Source: patent US20160311791A1, “NOVEL TRICYCLIC CALCIUM SENSING RECEPTOR ANTOGONISTS FOR THE TREATMENT OF OSTEOPOSOSIS” (MERCK SHARP & DOHME CORP., priority 2013, published 2016)
pKd: −log10 of the molar value.

Tests used:
calcium sensing receptor = molecular target: T1, calcium sensing receptor (Homo sapiens, UniProt P41180); assay: Calcium sensing receptor antagonist activity (test not specified)
T1 sequence (P41180 20-1078): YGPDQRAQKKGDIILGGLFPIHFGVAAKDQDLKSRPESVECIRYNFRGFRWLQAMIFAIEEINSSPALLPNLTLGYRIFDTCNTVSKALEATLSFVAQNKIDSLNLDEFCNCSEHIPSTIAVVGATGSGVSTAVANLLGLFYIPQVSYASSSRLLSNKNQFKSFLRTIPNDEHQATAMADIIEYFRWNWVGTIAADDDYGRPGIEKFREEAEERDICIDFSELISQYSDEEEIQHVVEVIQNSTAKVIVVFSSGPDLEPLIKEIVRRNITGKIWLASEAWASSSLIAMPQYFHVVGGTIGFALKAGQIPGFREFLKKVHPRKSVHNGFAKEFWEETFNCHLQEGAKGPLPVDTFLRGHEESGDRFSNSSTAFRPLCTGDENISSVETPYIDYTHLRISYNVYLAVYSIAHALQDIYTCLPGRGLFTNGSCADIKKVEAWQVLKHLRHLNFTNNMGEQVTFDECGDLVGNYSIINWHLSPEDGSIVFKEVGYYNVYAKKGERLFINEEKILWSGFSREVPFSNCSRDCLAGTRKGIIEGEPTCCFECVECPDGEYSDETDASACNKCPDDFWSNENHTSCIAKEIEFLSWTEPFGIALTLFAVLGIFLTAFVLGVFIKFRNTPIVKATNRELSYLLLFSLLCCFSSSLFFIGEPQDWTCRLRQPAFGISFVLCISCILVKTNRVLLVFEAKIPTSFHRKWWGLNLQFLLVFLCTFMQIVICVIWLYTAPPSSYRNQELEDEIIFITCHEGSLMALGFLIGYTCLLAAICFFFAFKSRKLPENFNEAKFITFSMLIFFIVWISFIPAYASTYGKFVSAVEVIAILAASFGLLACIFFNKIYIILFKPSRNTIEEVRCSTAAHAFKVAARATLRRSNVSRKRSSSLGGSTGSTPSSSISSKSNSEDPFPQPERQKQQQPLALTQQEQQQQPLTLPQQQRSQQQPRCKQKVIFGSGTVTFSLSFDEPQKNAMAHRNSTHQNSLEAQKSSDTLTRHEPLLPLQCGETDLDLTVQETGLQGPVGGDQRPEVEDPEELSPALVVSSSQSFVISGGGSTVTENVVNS

human CaSR = molecular target: T2, human CaSR (Homo sapiens, UniProt P41180); assay: CaSR binding assay (radioligand, HEK293 membranes); set-up: expressed in transfected cells; host or cells: HEK293 cell membranes; settings: radio-labeled compound used as ligand; read-out: apparent Kd
T2 sequence (P41180 20-1078): T1 sequence (P41180 20-1078)
Description: Procedures for CaSR Binding Assay
Membrane preparations from HEK293 cells expressing the human CaSR were generated. The cells were cultured and then washed twice with 1×PBS. The cells were dissociated by adding 4 ml pre-warmed 0.25% Trypsin-EDTA, and by incubating the flask at RT for 3 minutes. 10 ml media was dispensed over the cell layer surface, and the cells were harvested into a centrifuge tube. The cells were centrifuged at 200×g for 10 minutes. The cell pellet was suspended in 30 ml of membrane preparation buffer and then homogenized on ice twice at 16000 rpm for 10 seconds. Following homogenization, the membrane was collected by centrifuge at 40000×g for 30 minutes at 4° C., washed twice with 30 ml membrane preparation buffer, and centrifuged again at 40000×g for 10 minutes. The membrane pellet was suspended in 30 ml membrane preparation buffer (50 mM Tris, pH7.0, 10 mM MgCl, Proteinase inhibitor (Roche, REF 04693116001), and then homogenized on ice once at 16000 rpm for 10 seconds. The total protein concentration was measured using a BCA kit. The membrane protein concentration was adjusted to 2.4 mg/ml and then diluted with binding buffer (10 mM HEPES, pH7.4, 130 mM NaCl, 0.4 mM CaCl2, 5 mM MgCl2, 1 mM EGTA, 10 mM glucose, 0.1% BSA) to 0.33 μg/μl. The final amount in the binding assay was 20 μg/well. Test compound was serially diluted manually by using BIOHIT multi-channel pipettor in 100% DMSO (10 point, 3-fold dilution of each compound from 5.0 μM in 100% DMSO). 4 μl of serially diluted compound was manually transferred into a second assay microplate that contained 196 μl of binding assay buffer to create the intermediate dilution plate. For background, 20 μl of assay buffer was added to each control well. […] The binding reaction used a 100 μl reaction volume consisting of 10 μl of test compound, 30 μl of diluted radio-labelled compound, and 60 μl of membrane solution (0.33 μg/μl). The reaction mixture was incubated at room temperature for one hour. The Grade GF/C filter plates were presoaked in 0.3% PEI (protect from light) for 60 minutes at room temperature. The plate was then washed three times with ice-cold wash buffer (25 mM Tris-HCl, PH7.4, 130 mM NaCl, 5 mM MgCl2, 0.4 mM CaCl2, 0.1% BSA) prior to filtration of the binding samples. The binding reaction was terminated by rapid filtration of 100 μl binding mixture through the GF/C plate. Plates were then washed 6 times with ice-cold wash buffer. Filter plates were dried with a hair dryer for 20 minutes. 60 μl/well MICROSCINT 20 (a cocktail for microplates) was added to the bottom of sealed filters, then the filters were sealed at the top with tape. Bound radioactivity was counted in a TOPCOUNT scintillation counter. Exemplary compounds bind in the 1-500 nM range.

With `CC(C)(CC1Cc2ccccc2C1)NC[C@@H](O)COc1cc(-c2ccc(C(=O)O)cc2)ccc1F` [Example 25, (R)-3′-(3-((1-(2,3-dihydro-1H-inden-2-yl)-2-methylpropan-2-yl)amino)-2-hydroxypropoxy)-4′-fluoro-[1,1′-biphenyl]-4-carboxylic acid] the “calcium sensing receptor antagonist activity” value (calcium sensing receptor) was “shows calcium sensing receptor antagonist activity” and the pKd (human CaSR) was 6.40.
